In ChEMBL document CHEMBL3507680, “University of Dundee, Gates Library screen for HepG2 cell viability”:

experiment: Human HepG2 cell viability assay in 384 well format; assay type: toxicity, cell-based; parameters: dose 125 nL, time 70.5 hour; cytotoxicity at 70.5 h: concentration not given beside the values; settings: HepG2 cells, read-out: Inhibition

| Compound | cytotoxicity at 70.5 h [%] |
| --- | --- |
| O=C(Nc1ccc(-c2nnc[nH]2)cc1)C1CCN1Cc1ccccc1 (configuration not stated) | 14.7 |
| NC(=O)c1cccc(CNC/C=C/c2ccccc2)c1 | 12.6 |
| CCOc1cc(F)ccc1NC(=O)N(C)Cc1cnn(C)c1 | -5.78 |
| CCCc1noc(C2CCN(C(=O)C3CCCO3)CC2)n1 (configuration not stated) | -13.7 |
| CC(=O)c1c(F)cccc1N1CCC(NS(=O)(=O)c2ccccc2)CC1 | 1.15 |
| Cc1csc(CN2CC[C@H]3O[C@H](C(=O)Nc4cccnc4)CC[C@H]32)n1 | 8.96 |
| COC(C)(C)CNC(=O)N1CCC(n2ccc(C(F)(F)F)n2)CC1 | -76.1 |
| CN1C(=O)CCCC12CCCN(C(=O)c1ccc3c(c1)OCO3)C2 (configuration not stated) | -15.9 |
| Cc1cn[nH]c1C1CCCN1Cc1ccc(F)c(F)c1 (configuration not stated) | -0.872 |
| O=C(Nc1ccc(-c2cscn2)cc1)C1CCCN(Cc2ccon2)C1 (configuration not stated) | -1.4 |
| CC(C)c1nsc(N2CCSCC2)n1 | -22.2 |
| CN(CCc1noc(C2CC2)n1)C(=O)CN1C(=O)COc2ccccc21 | -4.64 |
| c1ncn(CCNC2CCCN(Cc3noc(C4CC4)n3)C2)n1 (configuration not stated) | -11.2 |
| O=C(Nc1nc[nH]n1)c1cc(-c2ccc(F)cc2)n[nH]1 | -14.4 |
| CC(c1nc(C(C)(C)C)no1)S(=O)(=O)CC(=O)N(C)C (configuration not stated) | -6.15 |
| CS(=O)(=O)CCNC(=O)c1cc2ccccc2nc1N1CCCC1 | -7.07 |
| CCN1CCN(C(=O)c2cccn2Cc2ccccc2)CC1 | -0.982 |
| Cc1ccc(CNCc2c(C)nn(C)c2N(C)C)cn1 | -3.06 |
| COCCc1ncc(CN2C[C@@H](C(=O)O)[C@H](C(C)C)C2)cn1 | 14.1 |
| CCc1cnc(N)nc1N[C@@H](C)c1ncccc1C | -12.4 |
| CC(C)NC(=O)CC1CC2(CCN(S(C)(=O)=O)CC2)c2ccccc21 (configuration not stated) | 3.25 |
| CCN(Cc1nc(COC)no1)C(=O)CCn1c(C)cc2ccccc21 | -0.00353 |
| Cc1c(CN2CC[C@@H](N3CCC(O)CC3)[C@H](O)C2)[nH]c2ccc(F)cc12 | -2.56 |

| Compound | cytotoxicity at 70.5 h [%] |
| --- | --- |
| N#Cc1cccc(Cl)c1NCCc1n[nH]c(=O)[nH]1 | -3.93 |
| Cn1cc(CNc2ccc(CCN3CCC(C(N)=O)CC3)cc2)cn1 | 13.6 |
| CCCN1C(=O)c2ccccc2C1OC (configuration not stated) | -6.48 |
| CSc1ccccc1NC(=O)CCN1CCC(C(=O)N(C)C)CC1 | 2.74 |
| Cc1csc(N2CCN(CC(=O)N3CCNC3=O)CC2C)n1 (configuration not stated) | 12 |
| O=C(NCC1CN(c2ncccn2)Cc2nccn2C1)c1cccnc1 (configuration not stated) | -4.53 |
| Cc1cc(F)ccc1-c1cc(NCCO)nc2[nH]ccc12 | 0.963 |
| O=C(Cn1cc(C(=O)O)ccc1=O)Nc1ccc(Cl)cc1F | -38 |
| CCN1CCN(C(=O)c2cc(C(F)(F)F)n[nH]2)[C@H]2CS(=O)(=O)C[C@H]21 | -18.6 |
| CCn1cc(CN2CCCC2c2nc(-c3ccccc3)no2)cc1C#N (configuration not stated) | 2.37 |
| Cc1cn(CC(=O)NC2CCN(C(C)C)CC2)c2ccccc12 | -1.25 |
| CCOCc1ccccc1NC(=O)NCC(c1cnn(C)c1)N(C)C (configuration not stated) | -5.82 |
| Cc1cc(NC(=O)C(C)N2CCN(c3nc(C)ns3)CC2)on1 (configuration not stated) | 4.54 |
| CC(=O)Nc1nc(C(=O)NCc2ccc(N3CCCCCC3)nc2)cs1 | 7.57 |
| O=C(NC1CC1)N1CCc2ncc(CN3CCOCC3)n2CC1 | -16 |
| CC(C)NC(=O)c1cc(Br)cc(S(=O)(=O)N2CCOCC2)c1F | -0.805 |
| Cc1cc(F)ccc1N1CCCC(NC2CCOCC2)C1=O (configuration not stated) | 31.7 |
| Cc1nnc(C(C)NCC2(c3ccc(Cl)cc3)CCCC2)o1 (configuration not stated) | -7.22 |
| COCCNC(=O)c1ccc2c(=O)n3c(nc2c1)CCCC3 | -2.97 |
| Cc1nc(Nc2cnccn2)cc(C2CCCN(C(C)C)C2)n1 (configuration not stated) | -8.23 |
| COc1cccc(CNCc2ccc(F)cc2Cl)c1O | -1.41 |
| CC(C)Oc1cc(N2CCC(C(N)=O)CC2)nc(N)n1 | -3.58 |
| COc1ccc(CN2C[C@H]3CN(c4cncnc4)C(=O)[C@H]3C2)cc1 | -5.39 |

| Compound | cytotoxicity at 70.5 h [%] |
| --- | --- |
| CS(=O)(=O)NC[C@H]1OC[C@@H]2CCN(C(=O)c3cccnc3)C[C@@H]21 | -0.643 |
| Cn1cnnc1C1CCCN(C(=O)c2ccc3c(c2)OCCCO3)C1 (configuration not stated) | -2.02 |
| CCn1c(C)cc(C(=O)NCc2cccc(NS(C)(=O)=O)c2)c1C | 16.2 |
| COCC1(CNC(=O)[C@@]23CNC[C@@H]2CN(C2CCCC2)C3)CC1 | -3.2 |
| CCOc1ccccc1OC1CCN(C(=O)c2cnsn2)CC1 | -1.79 |
| COc1c(CNCc2ccnc(N(C)C)c2)c(C(C)C)nn1C | 0.688 |
| CCn1ccnc1CN1CCCN(C(=O)c2cc(C)nn2CC)CC1 | 3.88 |
| N#Cc1ccc(S(=O)(=O)N2CSCC2C(=O)NCC(F)(F)F)cc1 (configuration not stated) | -5.51 |
| Cc1cc(OCC(=O)N2CCCC(c3ccn[nH]3)C2)no1 (configuration not stated) | -5.93 |
| CCn1nc2c(cc1=O)CN(CC(=O)Nc1nccs1)CC2 | -2.47 |
| Cc1cc(F)cc2c(N3CCC(S(N)(=O)=O)CC3)c(C#N)cnc12 | -4.86 |
| CNS(=O)(=O)CC1CCCN1c1ccc(Cl)cn1 (configuration not stated) | -1.45 |
| O=C(NCC1CCOC1)c1csc(-c2ccccc2)n1 (configuration not stated) | -15.4 |
| CN1CCOC(CNC(=O)CCCOc2cccc(F)c2)C1 (configuration not stated) | 0.774 |
| FC(F)(F)c1ccnc(N2CCCCCC2)c1 | -10.6 |
| CCOc1ccc(NC(C)c2nnnn2-c2ccccc2)cc1CO (configuration not stated) | -66.6 |
| COCCN1C[C@H]2[C@@H](C1)N(Cc1ccc(C)o1)CC[C@H]2OC | -5.94 |
| CC(C)CN1CCC(C(=O)NCCNC(=O)c2ccccc2)CC1 | -4.76 |
| CC(C)CCC1=NC2(CCN(C(=O)N3CCN(C)CC3)CC2)C(=O)N1 | 2.1 |
| Cc1cccc(CC(=O)NS(=O)(=O)c2ccc(F)c(F)c2)c1 | 8.16 |
| CN(CC1COc2ccccc2O1)C(=O)C1=NN(C)C(=O)CC1 (configuration not stated) | 8.57 |
| CCn1cnnc1CNc1nc(C)nc2scc(CC(C)C)c12 | -15.9 |
| CN(C)c1ccccc1CN1CCCCC1CNS(C)(=O)=O (configuration not stated) | -4.51 |

| Compound | cytotoxicity at 70.5 h [%] |
| --- | --- |
| COc1cccc(Cn2ncnc2CNC(C)=O)c1 | -10.5 |
| COc1cccc(CN2CCCCCC2c2cccs2)c1OC (configuration not stated) | -10.1 |
| COCCC(=O)NCc1ccc(-c2ccccc2C(=O)O)nc1 | -3.04 |
| O=C(NCCCN1CCOCC1)c1cc(-c2ccc3c(c2)CCO3)n[nH]1 | -0.337 |
| Cc1nnc(NC(=O)c2c3c(nn2C2CCS(=O)(=O)C2)CCC3)s1 (configuration not stated) | -4.4 |
| Cc1cc(C(F)(F)F)nc(C2(C)CCCN2CC(N)=O)n1 (configuration not stated) | 11.5 |
| COc1ncc(NC(=O)Nc2cc(C)ccc2OC)cn1 | 39.1 |
| COc1ncccc1CN1C[C@@H]2COC[C@]2(COc2cccnc2)C1 | -13.7 |
| CC(C)CN1CCC(NC(=O)N(C)Cc2csc3ccccc23)CC1 | -3.08 |
| c1ccc(CCn2cc(-c3nc(CN4CCOCC4)no3)nn2)cc1 | -6.91 |
| COc1ccc2c(ccn2CC(=O)Nc2n[nH]c(CC(C)C)n2)c1 | -11.7 |
| c1cnn(Cc2cnc3n2CCN(CC2CCCCC2)C3)c1 | -6.48 |
| Cc1nc(CN(C)Cc2nc(-c3ccncc3)no2)co1 | 3.9 |
| CC(=O)c1cccc(NC(=O)CN2CCCCC2C2OCCO2)c1 (configuration not stated) | -1.12 |
| Cc1ncsc1CCN1CCN(C(=O)c2ccc(=O)[nH]c2)CC1 | -1.09 |
| CC(C)N1CCc2ncn(C(C)C)c2C1C(=O)N1CCN(C)CC1 (configuration not stated) | 6.34 |
| CSC(C)C(=O)N1CCCN(Cc2cscn2)CC1 (configuration not stated) | 17.9 |
| COCCN1CCCC2(CCN(c3nccc4ccccc34)C2)C1=O (configuration not stated) | 11.2 |
| CN(C)S(=O)(=O)N1CC[C@]2(O)CCN(c3nc4ccccc4s3)C[C@@H]2C1 | 3.99 |
| Cc1ccc2c(n1)N(CCN(C)C)CCN(C(=O)c1ccoc1)C2 | -11.8 |
| Cc1cc(C)n(C2CCN(c3ncnc4sc5c(c34)CCNC5)C2)n1 (configuration not stated) | -18.5 |
| Cc1noc(C[C@@H]2COC[C@H]3CN(S(C)(=O)=O)C[C@@H]23)n1 | -5.3 |
| Cc1ccc(CN2Cc3ccccc3O[C@]3(CC[C@H](CO)CC3)C2)s1 | 5.08 |

| Compound | cytotoxicity at 70.5 h [%] |
| --- | --- |
| CC(=O)c1cnc(NCCN2CCCC(c3ccccc3)C2)nc1C (configuration not stated) | 14.2 |
| Cc1cc(C)n(-c2ccc(N3CCC4(CC3)OCC(C)O4)nc2)n1 (configuration not stated) | -8.82 |
| Cc1ccc(CNC(=O)c2ccc(=O)n(C)n2)c(OC2CCCC2)c1 | -5.94 |
| CN(C(=O)C1CSCN1S(=O)(=O)c1ccc(F)cc1)C1CC1 (configuration not stated) | -9.65 |
| Cc1cccnc1CN(C)c1ncnc2[nH]ccc12 | -6.05 |
| CC(SCC(=O)N(C)CC(=O)NC1CC1)c1ccc(F)c(F)c1 (configuration not stated) | -10.3 |
| COc1ccc(-c2cnc(CN3CCCC3CO)o2)cc1 (configuration not stated) | 7.93 |
| Cc1ccc(NC(=O)[C@H]2C[C@H](C(=O)O)CN(CC(C)C)C2)cn1 | -11.2 |
| COc1ccc2c(c1)s/c(=N\C(=O)CSCC(=O)Nc1nccs1)n2C | 16.4 |
| O=C(NCCn1ccnc1C1CCOC1)c1cccnc1 (configuration not stated) | -1.19 |
| O=C(NCc1cccs1)[C@]12COC[C@H]1CN(c1ncccn1)C2 | -3.55 |
| Cc1cc(CC(=O)NC2CCCN(c3ccccc3F)C2=O)n[nH]1 (configuration not stated) | 2.16 |
| CC[C@@]1(O)CCN(CCCOc2ccc(C(N)=O)cc2)C[C@H]1O | -4.97 |
| COCCCS(=O)(=O)N(Cc1cccc(C)c1)Cc1ccccn1 | 8.58 |
| C[C@H](NC(=O)N1CCC(Cc2ccccc2)CC1)C(=O)O | -12.5 |
| CC(=O)c1cc(CN2CCCCC2c2nc3cc(F)ccc3[nH]2)cs1 (configuration not stated) | -5.07 |
| CN1C(=O)C(c2cccnc2)CC12CCN(C(=O)c1ccc[nH]1)CC2 (configuration not stated) | 15.4 |
| O=C(N[C@H]1CC[C@H](O)CC1)c1ccc2nc(-c3ccccc3)cn2c1 | -7.18 |
| Cc1nc(CN2CCC(C(=O)N(C)C3CCC(C)CC3)CC2)cs1 (configuration not stated) | -3.95 |
| COc1cccc(-c2csc(Cn3ccc(=O)[nH]c3=O)n2)c1 | 19.5 |
